According to ChEMBL document CHEMBL2016551, “Synthesis and SAR studies of novel heteroaryl fused tetracyclic indole-diamide compounds: potent allosteric inhibitors of the hepatitis C virus NS5B polymerase” (Bioorg Med Chem Lett, 2012):

Key:
[1] = target: RNA-directed RNA polymerase (Hepacivirus hominis, UniProt O39930, P495L); assay: Inhibition of Hepatitis C virus NS5B RNA-dependent RNA polymerase P495L mutant
[2] = Inhibition of Hepatitis C virus NS5B RNA-dependent RNA polymerase; parameters: species or system Hepacivirus hominis
Hepatitis C virus [3] = assay: Antiviral activity against Hepatitis C virus genotype 1b infected in human HuH7 cells by luciferase reporter gene analysis; type: functional, organism-based, Hepacivirus hominis; details: Huh-7
Hepatitis C virus [4] = assay: Antiviral activity against Hepatitis C virus genotype 1a infected in human HuH7 cells by luciferase reporter gene analysis; type: functional, organism-based, Hepacivirus hominis; details: subtype 1a, Huh-7
[5] = Cytotoxicity against human HuH7 cells; type: cell-based; details: Huh-7 cells
[6] = Half life in rat at 2 mg/kg, iv; type: ADME, organism-based; parameters: dose 2 mg/kg, route intravenous; details: in vivo
[7] = Oral bioavailability in rat; type: ADME, organism-based; details: in vivo
[8] = AUC in rat; type: ADME, organism-based; details: plasma
[9] = Clearance in rat at 2 mg/kg, iv; type: ADME, organism-based; parameters: dose 2 mg/kg, route intravenous; details: in vivo

RNA-directed RNA polymerase, sequence (O39930 entry or part of it P495L): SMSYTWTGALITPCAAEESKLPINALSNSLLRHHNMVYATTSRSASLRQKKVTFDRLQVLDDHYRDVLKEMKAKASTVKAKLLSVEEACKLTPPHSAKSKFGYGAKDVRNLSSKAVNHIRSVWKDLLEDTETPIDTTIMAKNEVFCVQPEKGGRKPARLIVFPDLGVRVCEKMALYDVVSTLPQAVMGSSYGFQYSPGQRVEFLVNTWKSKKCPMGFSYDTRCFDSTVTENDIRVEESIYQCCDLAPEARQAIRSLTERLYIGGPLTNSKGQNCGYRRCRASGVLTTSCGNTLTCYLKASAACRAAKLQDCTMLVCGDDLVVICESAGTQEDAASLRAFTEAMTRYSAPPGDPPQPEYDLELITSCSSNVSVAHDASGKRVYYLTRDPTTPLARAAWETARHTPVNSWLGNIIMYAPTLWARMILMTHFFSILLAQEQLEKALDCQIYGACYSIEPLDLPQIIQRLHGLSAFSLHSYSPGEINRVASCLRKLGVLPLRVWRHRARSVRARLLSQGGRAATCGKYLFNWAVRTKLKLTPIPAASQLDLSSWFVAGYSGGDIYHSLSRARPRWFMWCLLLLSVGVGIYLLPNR

| Compound | IC50 [1] [nM] | IC50 [2] [nM] | EC50 (Hepatitis C virus [3]) [nM] | EC50 (Hepatitis C virus [4]) [nM] | CC50 [5] [nM] | half-life [6] [h] | bioavailability [7] [%] | AUC [8] [µM·h] | clearance [9] [mL/min/kg] |
| --- | --- | --- | --- | --- | --- | --- | --- | --- | --- |
| O=C(O)/C=C/c1ccc(NC(=O)C2(NC(=O)c3ccc4c(C5CCCCC5)c5n(c4c3)CCOc3cccnc3-5)CCCC2)cc1 | > 600 | 15 | 22 | 157 | – | – | – | – | – |
| O=C(O)/C=C/c1ccc(NC(=O)C2(NC(=O)c3ccc4c(C5CCCCC5)c5n(c4c3)CCCc3ocnc3-5)CCCC2)cc1 | 5850 | 44 | 78 | 380 | – | – | – | – | – |
| O=C(O)/C=C/c1ccc(NC(=O)C2(NC(=O)c3ccc4c(C5CCCCC5)c5n(c4c3)CCCc3nc[nH]c3-5)CCCC2)cc1 | – | 228 | 738 | 2510 | – | – | – | – | – |
| O=C(O)/C=C/c1ccc(NC(=O)C2(NC(=O)c3ccc4c(C5CCCCC5)c5n(c4c3)CCCc3nccnc3-5)CCCC2)cc1 | 2280 | 24 | 24 | 89 | – | – | – | – | – |
| O=C(O)/C=C/c1ccc(NC(=O)C2(NC(=O)c3ccc4c(C5CCCCC5)c5n(c4c3)CCCc3ncccc3-5)CCCC2)cc1 | 1730 | 30 | 9 | 35 | 63000 | 1 | 4 | 1.7 | 7.2 |
| O=C(O)/C=C/c1ccc(NC(=O)C2(NC(=O)c3ccc4c(C5CCCCC5)c5n(c4c3)CCOc3ncccc3-5)CCCC2)cc1 | 2800 | 14 | 21 | 28 | – | – | – | – | – |
| O=C(O)/C=C/c1ccc(NC(=O)C2(NC(=O)c3ccc4c(C5CCCCC5)c5n(c4c3)CCCc3ccccc3-5)CCCC2)cc1 | 3390 | 34 | 14 | 71 | 30000 | – | – | – | – |
| Cc1nc2c(s1)CCCn1c-2c(C2CCCCC2)c2ccc(C(=O)NC3(C(=O)Nc4ccc(/C=C/C(=O)O)cc4)CCCC3)cc21 | 5100 | 108 | 683 | 4190 | – | – | – | – | – |
| Nc1nc2c(s1)CCCn1c-2c(C2CCCCC2)c2ccc(C(=O)NC3(C(=O)Nc4ccc(/C=C/C(=O)O)cc4)CCCC3)cc21 | 4840 | 250 | 1810 | 3780 | – | – | – | – | – |
| O=C(O)/C=C/c1ccc(NC(=O)C2(NC(=O)c3ccc4c(C5CCCCC5)c5n(c4c3)CC(=O)Nc3cccnc3-5)CCCC2)cc1 | 3100 | 24 | 12 | 39 | 45000 | – | < 1 | – | 8.7 |
| O=C(O)/C=C/c1ccc(NC(=O)C2(NC(=O)c3ccc4c(C5CCCCC5)c5n(c4c3)CCCc3occc3-5)CCCC2)cc1 | 3720 | 34 | < 69 | – | – | – | – | – | – |
